The record followed here is PMC10120512, “Benzenesulfonamide derivatives as Vibrio cholerae carbonic anhydrases inhibitors: a computational-aided insight in the structural rigidity-activity relationships” (Journal of Enzyme Inhibition and Medicinal Chemistry, 2023).

A word on the Ki: it is a measure of affinity in units of concentration, obtained from inhibition or displacement.

In one assay the target is VchβCA (Vibrio cholerae, UniProt A0A086SLX8). In words: biochemical.
For a further assay, the target named is VchγCA (Vibrio cholerae, UniProt Q9KVT1). In words: biochemical.
Sequence of VchγCA (Q9KVT1 1-184): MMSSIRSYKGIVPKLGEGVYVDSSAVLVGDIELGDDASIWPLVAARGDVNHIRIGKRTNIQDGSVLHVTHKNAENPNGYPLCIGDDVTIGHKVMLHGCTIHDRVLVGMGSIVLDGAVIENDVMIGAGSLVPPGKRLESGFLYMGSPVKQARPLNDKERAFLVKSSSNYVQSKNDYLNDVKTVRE
Assay [1] deals with clinical isolates of V. cholerae (SI-Vc22, SI-Vc71, SI-Vc912). In words: Direct antibacterial activity, agar diffusion method. In kind it is cell-based. The following applies: for growth inhibition against at least one of the clinical isolates: 2 μL spot, 37 °C, 24 h; for inhibition zone diameter: all the isolates, data not shown. Background: Agar diffusion results depend on both activity and mobility in agar.

Assay [2] has as its system VchαCA. In words: biochemical. In kind it is biochemical. As to conditions: for SI [ KI hCA I/KI VchαCA ]: selectivity index hCA I over VchαCA; for SI [ KI hCA II/KI VchαCA ]: selectivity index hCA II over VchαCA.
The target in assay [3] is VchαCA (Vibrio cholerae, UniProt Q9KMP6). Briefly: biochemical. In kind it is biochemical.
Sequence of VchαCA (Vibrio cholerae, UniProt Q9KMP6) (Q9KMP6 entry or part of it): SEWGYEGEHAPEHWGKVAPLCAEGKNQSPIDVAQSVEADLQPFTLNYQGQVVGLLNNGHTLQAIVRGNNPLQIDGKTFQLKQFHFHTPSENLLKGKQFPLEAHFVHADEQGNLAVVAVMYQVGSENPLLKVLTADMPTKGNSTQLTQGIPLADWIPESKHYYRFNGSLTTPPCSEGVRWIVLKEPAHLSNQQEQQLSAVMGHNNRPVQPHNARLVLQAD

Sequence of VchβCA (A0A086SLX8 entry or part of it): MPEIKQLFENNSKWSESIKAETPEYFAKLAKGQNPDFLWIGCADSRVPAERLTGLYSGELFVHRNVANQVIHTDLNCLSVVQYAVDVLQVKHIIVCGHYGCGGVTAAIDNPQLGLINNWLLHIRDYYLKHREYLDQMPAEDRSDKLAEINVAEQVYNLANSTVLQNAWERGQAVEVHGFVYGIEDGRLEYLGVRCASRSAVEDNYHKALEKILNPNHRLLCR

As for `NS(=O)(=O)c1ccc(NC(=O)CNc2ccc(Cl)cc2)cc1` [3b], the results for the Ki at VchβCA, at VchγCA and at VchαCA [3] were 116 µM, 86.9 µM and 66 nM, respectively. Besides, in assay [1], the “growth inhibition against at least one of the clinical isolates” value (“growth inhibition against at least one” for short) is “moderate growth inhibition”. Moreover, the “SI [ KI hCA I/KI VchαCA ]” value with VchαCA [2] stood at 0.3. In the assay on VchαCA [2], the “SI [ KI hCA II/KI VchαCA ]” value is 0.1.
Regarding `NS(=O)(=O)c1ccc(N2CCN(c3ccc(I)cc3)C2=O)cc1` [4c], the Ki came out at 116 µM on VchβCA, 72.2 µM on VchγCA and 13 nM at VchαCA [3]. Further, the inhibition zone diameter in assay [1] was 3–5 mm. Moreover, the “SI [ KI hCA I/KI VchαCA ]” value in the assay on VchαCA [2] turned out to be 7.1. Moreover, the “SI [ KI hCA II/KI VchαCA ]” value in the assay on VchαCA [2] is 1.0.
`NS(=O)(=O)c1ccc(N2CCN(c3ccccc3F)C2=O)cc1` [6c]: the figures for the Ki on VchγCA and on VchαCA [3] were 82.8 µM and 9.7 nM, respectively. The inhibition zone diameter in assay [1] was 3–5 mm.
On VchβCA, `CCCCN1CCN(c2ccc(S(N)(=O)=O)cc2)C1=O` [9c] registered a Ki of 113 µM. On VchγCA, the Ki is 54.9 µM. In assay [1], the “growth inhibition against at least one” value is given as “moderate growth inhibition” and the inhibition zone diameter is given as 3–5 mm. Also, the “SI, selectivity with respect to human isoenzymes” value with VchαCA [2] (VchαCA versus human isoenzymes (abstract)) is on record as no less than 90. In the assay with VchαCA [2], the “SI [ KI hCA I/KI VchαCA ]” value was found to be 128.4 and the “SI [ KI hCA II/KI VchαCA ]” value came out at 90.0. The compound further gave a Ki on VchαCA [3] of 4.7 nM.
On VchβCA, `NS(=O)(=O)c1cccc(NC(=O)CNc2ccccc2)c1` [11b] came in with a Ki of 132 µM. The “growth inhibition against at least one” value in assay [1] is given as “moderate growth inhibition”. In the assay with VchαCA [2], the “SI [ KI hCA I/KI VchαCA ]” value amounted to 7.5 and the “SI [ KI hCA II/KI VchαCA ]” value is 0.6. Besides, the affinity on VchαCA [3] corresponds to a Ki of 59.4 nM.
For `NS(=O)(=O)c1cccc(NCCNc2ccc(Cl)cc2)c1` [13a], the Ki was determined as 59.2 µM at VchβCA, 5.6 µM at VchγCA and 75.6 nM on VchαCA [3]. Also, the “growth inhibition against at least one” value in assay [1] is “moderate growth inhibition”. Also, in the assay on VchαCA [2], the “SI [ KI hCA I/KI VchαCA ]” value worked out at 4.6. For the same compound, the “SI [ KI hCA II/KI VchαCA ]” value with VchαCA [2] is listed as 0.2.
